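Each compound was tested at five concentrations against cells in 96-well plates for 48 hours. GI50 is the concentration that inhibits growth by half. TGI: total growth inhibition.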
How the values were obtained:
Assay in all cases: DTP human tumour cell line panel, 48 h
OVCAR-8 ovarian = test system: OVCAR-8 ovarian
U251 CNS = test system: U251 CNS
CCRF-CEM leukemia = test system: CCRF-CEM leukemia
IGROV1 ovarian = test system: IGROV1 ovarian
DU-145 prostate = test system: DU-145 prostate
HOP-92 NSCLC = test system: HOP-92 NSCLC
LOX IMVI melanoma = test system: LOX IMVI melanoma
NCI-H522 lung = test system: NCI-H522 lung
T-47D breast = test system: T-47D breast
COLO 205 colon = test system: COLO 205 colon

## CC(=O)Nc1oc(C)nc1C#N
OVCAR-8 ovarian
  TGI: > 100 µM
U251 CNS
  TGI: > 100 µM
CCRF-CEM leukemia
  TGI: > 100 µM
IGROV1 ovarian
  TGI: > 100 µM
DU-145 prostate
  TGI: > 100 µM
HOP-92 NSCLC
  TGI: > 100 µM
LOX IMVI melanoma
  TGI: > 100 µM

## O=C1C(=O)C(CCCO)(CCCO)CCCCCCCCC1(CCCO)CCCO
OVCAR-8 ovarian
  TGI: > 100 µM
U251 CNS
  TGI: > 100 µM
NCI-H522 lung
  TGI: > 100 µM
IGROV1 ovarian
  TGI: > 100 µM
DU-145 prostate
  TGI: > 100 µM
HOP-92 NSCLC
  TGI: > 100 µM
T-47D breast
  TGI: > 100 µM
LOX IMVI melanoma
  TGI: > 100 µM
COLO 205 colon
  TGI: > 100 µM

## O=C(n1c(=O)n(-c2ccc([N+](=O)[O-])cc2)c(=O)n1C(=O)C(Cl)(Cl)Cl)C(Cl)(Cl)Cl
OVCAR-8 ovarian
  TGI: > 100 µM
U251 CNS
  TGI: > 100 µM
NCI-H522 lung
  TGI: > 100 µM
CCRF-CEM leukemia
  TGI: > 100 µM
IGROV1 ovarian
  TGI: > 100 µM
DU-145 prostate
  TGI: > 100 µM
T-47D breast
  TGI: > 100 µM
LOX IMVI melanoma
  TGI: > 100 µM
COLO 205 colon
  TGI: > 100 µM

## CCn1c2ccccc2c2cc(NC(=O)c3c(C)[nH]c(=O)[nH]c3=S)ccc21
OVCAR-8 ovarian
  TGI: > 100 µM
U251 CNS
  TGI: > 100 µM
CCRF-CEM leukemia
  TGI: > 100 µM
DU-145 prostate
  TGI: > 100 µM
HOP-92 NSCLC
  TGI: > 100 µM
T-47D breast
  TGI: > 100 µM
LOX IMVI melanoma
  TGI: > 100 µM
COLO 205 colon
  TGI: 46.3 µM

## CCCCN=C(OC1C=CCCC1)SC (stereo not given)
OVCAR-8 ovarian
  TGI: > 100 µM
U251 CNS
  TGI: > 100 µM
CCRF-CEM leukemia
  TGI: > 100 µM
IGROV1 ovarian
  TGI: > 100 µM
DU-145 prostate
  TGI: > 100 µM
HOP-92 NSCLC
  TGI: > 100 µM
T-47D breast
  TGI: > 100 µM
COLO 205 colon
  TGI: > 100 µM

## CCOC(=O)Cn1c(C)nc2nn(Cc3ccccc3)cc2c1=O
OVCAR-8 ovarian
  TGI: > 100 µM
U251 CNS
  TGI: > 100 µM
CCRF-CEM leukemia
  TGI: > 100 µM
IGROV1 ovarian
  TGI: > 100 µM
DU-145 prostate
  TGI: > 100 µM
HOP-92 NSCLC
  TGI: > 100 µM
T-47D breast
  TGI: > 100 µM

## Cc1cc2nnn(C3CCCO3)c2cc1C (stereo not given)
OVCAR-8 ovarian
  TGI: > 100 µM
U251 CNS
  TGI: > 100 µM
NCI-H522 lung
  TGI: > 100 µM
CCRF-CEM leukemia
  TGI: > 100 µM
IGROV1 ovarian
  TGI: > 100 µM
DU-145 prostate
  TGI: > 100 µM
T-47D breast
  TGI: > 100 µM
COLO 205 colon
  TGI: > 100 µM

## O=c1[nH]nc(Cc2ccc([N+](=O)[O-])cc2)[nH]1
OVCAR-8 ovarian
  TGI: > 100 µM
U251 CNS
  TGI: > 100 µM
NCI-H522 lung
  TGI: > 100 µM
CCRF-CEM leukemia
  TGI: > 100 µM
IGROV1 ovarian
  TGI: > 100 µM
DU-145 prostate
  TGI: > 100 µM
T-47D breast
  TGI: > 100 µM
LOX IMVI melanoma
  TGI: > 100 µM
COLO 205 colon
  TGI: > 100 µM

## Cc1cc(=O)[nH]c(S(=O)(=O)NC(=S)Nc2ccc(Br)cc2)n1
OVCAR-8 ovarian
  TGI: > 100 µM
U251 CNS
  TGI: > 100 µM
NCI-H522 lung
  TGI: 70 µM
IGROV1 ovarian
  TGI: > 100 µM
DU-145 prostate
  TGI: > 100 µM
HOP-92 NSCLC
  TGI: > 100 µM
T-47D breast
  TGI: > 100 µM
COLO 205 colon
  TGI: > 100 µM

## O.O=[Se](=O)(O)O.[NH-]C1CCCCC1[NH-].[Pt+2] (stereo not given)
OVCAR-8 ovarian
  GI50: 7.55 µM
  TGI: > 100 µM
U251 CNS
  GI50: 37 µM
  TGI: > 100 µM
NCI-H522 lung
  GI50: 13.7 µM
  TGI: > 59.4 µM
CCRF-CEM leukemia
  GI50: 9.8 µM
  TGI: > 100 µM
IGROV1 ovarian
  GI50: 7.98 µM
  TGI: > 100 µM
HOP-92 NSCLC
  GI50: 58.8 µM
  TGI: > 100 µM
LOX IMVI melanoma
  GI50: 8.21 µM
  TGI: > 74.7 µM
COLO 205 colon
  GI50: 5.82 µM
  TGI: 67.8 µM

## O=C(c1ccccc1)c1ccc2c(c1)N=C(c1ccc(Cl)c(Cl)c1)CC(c1ccc3ccccc3c1)N2 (stereo not given)
OVCAR-8 ovarian
  TGI: > 100 µM
U251 CNS
  TGI: > 100 µM
NCI-H522 lung
  TGI: > 100 µM
CCRF-CEM leukemia
  TGI: > 100 µM
IGROV1 ovarian
  TGI: > 100 µM
HOP-92 NSCLC
  TGI: > 100 µM
LOX IMVI melanoma
  TGI: > 100 µM
COLO 205 colon
  TGI: > 100 µM

## CC(C)(C)OC(=O)N[C@@H](Cc1ccccc1)C(=O)N1CC[C@@H](C(=O)N2[C@H]3CC4CC[C@@]3(CS2(=O)=O)C4(C)C)N1
OVCAR-8 ovarian
  TGI: > 100 µM
U251 CNS
  TGI: > 100 µM
CCRF-CEM leukemia
  TGI: > 100 µM
DU-145 prostate
  TGI: > 100 µM
HOP-92 NSCLC
  TGI: > 100 µM
T-47D breast
  TGI: 51.1 µM
LOX IMVI melanoma
  TGI: > 100 µM
COLO 205 colon
  TGI: > 100 µM

— PubChem BioAssay (NCI)
